According to the supplement of paper PMC10307832:

Key:
Test in all cases: relative viability (nuclei count vs DMSO), 5 days (fraction); higher = more cells survive
VX-11e + Alpelisib = compound: CC1=CN=C(N=C1C2=CNC(=C2)C(=O)N[C@H](CO)C3=CC(=CC=C3)Cl)NC4=C(C=C(C=C4)F)Cl [VX-11e] + Cc1nc(NC(=O)N2CCC[C@H]2C(N)=O)sc1-c1ccnc(C(C)(C)C(F)(F)F)c1 [Alpelisib] (partner 2 µM)
Outline: (§1)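 Lung cancer cell lines were seeded in 1536-well plates and dosed by pin tool the next day, with either a single drug or a fixed anchor-drug dose combined with five library-drug doses (not always all listed) spaced in √10 steps. Five days later, one step fixed the cells and stained their nuclei (final 0.05% Triton X-100, 1% formaldehyde, 1 ug/ml Hoechst), and nuclei were counted on 4× images. Relative viability is the nuclei count in treated wells divided by the count in vehicle wells, and each value is the median of duplicate plates.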

VX-11e + Dasatinib = compound: CC1=CN=C(N=C1C2=CNC(=C2)C(=O)N[C@H](CO)C3=CC(=CC=C3)Cl)NC4=C(C=C(C=C4)F)Cl [VX-11e] + Cc1nc(Nc2ncc(C(=O)Nc3c(C)cccc3Cl)s2)cc(N2CCN(CCO)CC2)n1 [Dasatinib] (partner 0.075 µM)
Outline: as §1

VX-11e + Tozasertib = compound: CC1=CN=C(N=C1C2=CNC(=C2)C(=O)N[C@H](CO)C3=CC(=CC=C3)Cl)NC4=C(C=C(C=C4)F)Cl [VX-11e] + Cc1cc(Nc2cc(N3CCN(C)CC3)nc(Sc3ccc(NC(=O)C4CC4)cc3)n2)n[nH]1 [Tozasertib] (partner 0.1 µM)
Outline: as §1

VX-11e + Luminespib = compound: CC1=CN=C(N=C1C2=CNC(=C2)C(=O)N[C@H](CO)C3=CC(=CC=C3)Cl)NC4=C(C=C(C=C4)F)Cl [VX-11e] + CCNC(=O)c1noc(-c2cc(C(C)C)c(O)cc2O)c1-c1ccc(CN2CCOCC2)cc1 [Luminespib] (partner 0.01 µM)
Outline: as §1

Cell Line	relative viability (VX-11e + Alpelisib; first compound 0.04 µM)	relative viability (VX-11e + Alpelisib; first compound 0.1265 µM)	relative viability (VX-11e + Alpelisib; first compound 0.4 µM)	relative viability (VX-11e + Alpelisib; first compound 1.265 µM)	relative viability (VX-11e + Alpelisib; first compound 4 µM)	relative viability (VX-11e + Dasatinib; first compound 0.04 µM)	relative viability (VX-11e + Dasatinib; first compound 0.1265 µM)	relative viability (VX-11e + Dasatinib; first compound 0.4 µM)	relative viability (VX-11e + Dasatinib; first compound 1.265 µM)	relative viability (VX-11e + Dasatinib; first compound 4 µM)	relative viability (VX-11e + Tozasertib; first compound 0.04 µM)	relative viability (VX-11e + Tozasertib; first compound 0.1265 µM)	relative viability (VX-11e + Tozasertib; first compound 0.4 µM)	relative viability (VX-11e + Tozasertib; first compound 1.265 µM)	relative viability (VX-11e + Tozasertib; first compound 4 µM)	relative viability (VX-11e + Luminespib; first compound 0.04 µM)	relative viability (VX-11e + Luminespib; first compound 0.1265 µM)	relative viability (VX-11e + Luminespib; first compound 0.4 µM)	relative viability (VX-11e + Luminespib; first compound 1.265 µM)	relative viability (VX-11e + Luminespib; first compound 4 µM)
EBC-1	0.816	0.766	0.632	0.693	0.23	–	–	–	–	–	–	–	–	–	–	–	–	–	–	–
EKVX	0.953	0.869	0.984	0.752	0.335	0.687	0.482	0.401	0.489	0.247	0.385	0.398	0.342	0.257	0.163	0.714	0.894	0.723	0.85	0.52
EMC-BAC-2	0.731	0.662	0.687	0.618	0.534	0.303	0.291	0.437	0.509	0.407	0.313	0.272	0.373	0.382	0.353	1.21	1.19	1.2	1.19	0.924
EPLC-272H	0.742	0.702	0.823	0.835	0.512	0.328	0.269	–	0.334	0.2	0.224	0.262	–	0.193	0.205	0.173	0.302	–	0.293	0.148
H3255	0.662	0.617	0.436	0.688	0.562	0.37	0.38	0.538	0.281	0.347	0.732	0.698	0.562	0.595	0.724	0.773	0.963	0.819	0.686	0.89
HARA	0.772	0.776	0.787	0.865	0.338	0.306	0.2	0.273	0.248	0.157	0.106	0.118	0.119	0.0971	0.0712	0.677	0.609	0.637	0.695	0.297
HCC-15	0.902	0.878	0.753	0.408	0.165	0.66	0.52	–	0.243	0.148	0.428	0.35	0.306	0.153	0.172	0.264	0.363	0.207	0.18	0.175
HCC-44	0.796	0.766	0.716	0.614	0.355	–	–	–	–	–	0.975	0.863	0.182	0.396	0.549	1.17	0.96	0.364	0.556	0.916
HCC-78	0.313	0.348	0.381	0.276	0.312	–	0.412	0.411	0.382	0.44	–	0.538	0.386	0.324	0.487	–	–	–	–	–
